# In ChEMBL document CHEMBL1201862, “PubChem BioAssay data set” (2004):
#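 A five-concentration, 48-hour dose response in 96-well plates underlies each endpoint, interpolated linearly between surrounding concentrations. GI50 = concentration required for 50% inhibition of growth.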 The source made the active and inactive calls. Cut-off read from the data, not from the text of the source: active = GI50 up to about 1.1 µM and inactive = higher.
# Experiments:
# Assay in all cases: DTP human tumour cell line panel, 48 h
# 786-0 = system: 786-0
# TK-10 = system: TK-10
# EKVX = system: EKVX
# SR = system: SR
# HCT-15 = system: HCT-15
# SF-539 = system: SF-539
# CAKI-1 = system: CAKI-1
# COLO 205 = system: COLO 205
# HL-60 = system: HL-60
# SK-OV-3 = system: SK-OV-3
# Malme-3M = system: Malme-3M
# RPMI-8226 = system: RPMI-8226
# DMS-273 = system: DMS-273
# NCI-H226 = system: NCI-H226
# KM-20L2 = system: KM-20L2
# OVCAR-8 = system: OVCAR-8
# SK-MEL-5 = system: SK-MEL-5
# SK-MEL-2 = system: SK-MEL-2
# MOLT-4 = system: MOLT-4
# CCRF-CEM = system: CCRF-CEM
# KM12 = system: KM12
# A498 = system: A498
# IGROV-1 = system: IGROV-1
# UACC-62 = system: UACC-62
# NCI-H522 = system: NCI-H522
# NCI-H23 = system: NCI-H23
# SN12C = system: SN12C
# DLD-1 = system: DLD-1
# HOP-62 = system: HOP-62
# OVCAR-3 = system: OVCAR-3
# SNB-75 = system: SNB-75
# LXFL 529 = system: LXFL 529
# NCI-H460 = system: NCI-H460
# HCC 2998 = system: HCC 2998
# HCT-116 = system: HCT-116
# SNB-19 = system: SNB-19
# A549 = system: A549
# U-251 = system: U-251
# M14 = system: M14
# M19-MEL = system: M19-MEL
# LOX IMVI = system: LOX IMVI
# OVCAR-5 = system: OVCAR-5
# OVCAR-4 = system: OVCAR-4
# HOP-18 = system: HOP-18
# UO-31 = system: UO-31
# SW-620 = system: SW-620
# HOP-92 = system: HOP-92
# K562 = system: K562
# UACC-257 = system: UACC-257
# ACHN = system: ACHN
# HT-29 = system: HT-29
# SF-295 = system: SF-295
# SF-268 = system: SF-268
# SK-MEL-28 = system: SK-MEL-28
# RXF 393 = system: RXF 393
# SNB-78 = system: SNB-78
compound,measurement,setting,value
C=C1CCC2C(C)(CO)C(O)CCC2(C)C1C/C=C1/CCOC1=O (stereo not given),GI50,786-0,> 100 µM (inactive)
same,GI50,TK-10,> 100 µM (inactive)
same,GI50,EKVX,> 100 µM (inactive)
same,GI50,SR,> 100 µM (inactive)
same,GI50,HCT-15,> 100 µM
same,GI50,SF-539,> 100 µM (inactive)
same,GI50,CAKI-1,> 100 µM (inactive)
same,GI50,COLO 205,> 100 µM (inactive)
same,GI50,HL-60,> 100 µM (inactive)
same,GI50,SK-OV-3,> 100 µM (inactive)
same,GI50,Malme-3M,> 100 µM (inactive)
same,GI50,RPMI-8226,> 100 µM (inactive)
same,GI50,DMS-273,> 100 µM (inactive)
same,GI50,NCI-H226,> 100 µM (inactive)
same,GI50,KM-20L2,> 100 µM (inactive)
same,GI50,OVCAR-8,> 100 µM (inactive)
same,GI50,SK-MEL-5,> 100 µM (inactive)
same,GI50,SK-MEL-2,> 100 µM (inactive)
same,GI50,MOLT-4,> 100 µM (inactive)
same,GI50,CCRF-CEM,> 100 µM (inactive)
same,GI50,KM12,> 100 µM (inactive)
same,GI50,A498,> 100 µM (inactive)
same,GI50,IGROV-1,> 100 µM (inactive)
same,GI50,UACC-62,> 100 µM (inactive)
same,GI50,NCI-H522,31.3 µM (inactive)
same,GI50,NCI-H23,> 100 µM (inactive)
same,GI50,SN12C,> 100 µM (inactive)
same,GI50,DLD-1,> 100 µM (inactive)
same,GI50,HOP-62,> 100 µM (inactive)
same,GI50,OVCAR-3,> 100 µM (inactive)
same,GI50,SNB-75,> 100 µM (inactive)
same,GI50,LXFL 529,> 100 µM (inactive)
same,GI50,NCI-H460,> 100 µM (inactive)
same,GI50,HCC 2998,> 100 µM (inactive)
same,GI50,HCT-116,> 100 µM (inactive)
same,GI50,SNB-19,> 100 µM (inactive)
same,GI50,A549,> 100 µM (inactive)
same,GI50,U-251,> 100 µM (inactive)
same,GI50,M14,> 100 µM (inactive)
same,GI50,M19-MEL,> 100 µM (inactive)
same,GI50,LOX IMVI,> 100 µM (inactive)
same,GI50,OVCAR-5,> 100 µM (inactive)
same,GI50,OVCAR-4,> 100 µM (inactive)
same,GI50,HOP-18,> 100 µM (inactive)
same,GI50,UO-31,> 100 µM (inactive)
same,GI50,SW-620,> 100 µM (inactive)
same,GI50,HOP-92,> 100 µM (inactive)
same,GI50,K562,> 100 µM (inactive)
same,GI50,UACC-257,> 100 µM (inactive)
same,GI50,ACHN,> 100 µM (inactive)
same,GI50,HT-29,> 100 µM (inactive)
same,GI50,SF-295,> 100 µM (inactive)
COc1ccc(C2S/C(=C\c3cccc(OC)c3)C(=O)N2NC(=O)Cc2ccccc2)cc1 (stereo not given),GI50,786-0,> 100 µM (inactive)
same,GI50,TK-10,> 100 µM (inactive)
same,GI50,SR,> 100 µM (inactive)
same,GI50,HCT-15,> 100 µM
same,GI50,SF-539,> 100 µM (inactive)
same,GI50,CAKI-1,> 100 µM (inactive)
same,GI50,SF-268,> 100 µM (inactive)
same,GI50,COLO 205,> 100 µM (inactive)
same,GI50,HL-60,> 100 µM (inactive)
same,GI50,SK-OV-3,> 100 µM (inactive)
same,GI50,Malme-3M,> 100 µM (inactive)
same,GI50,RPMI-8226,> 100 µM (inactive)
same,GI50,DMS-273,> 100 µM (inactive)
same,GI50,NCI-H226,94.8 µM (inactive)
same,GI50,OVCAR-8,> 100 µM (inactive)
same,GI50,SK-MEL-5,> 100 µM (inactive)
same,GI50,SK-MEL-2,> 100 µM (inactive)
same,GI50,MOLT-4,> 100 µM (inactive)
same,GI50,CCRF-CEM,> 100 µM (inactive)
same,GI50,KM12,> 100 µM (inactive)
same,GI50,A498,> 100 µM (inactive)
same,GI50,IGROV-1,> 100 µM (inactive)
same,GI50,UACC-62,> 100 µM (inactive)
same,GI50,NCI-H522,> 100 µM (inactive)
same,GI50,NCI-H23,> 100 µM (inactive)
same,GI50,SN12C,> 100 µM (inactive)
same,GI50,DLD-1,> 100 µM (inactive)
same,GI50,HOP-62,> 100 µM (inactive)
same,GI50,SNB-75,> 100 µM (inactive)
same,GI50,LXFL 529,> 100 µM (inactive)
same,GI50,NCI-H460,> 100 µM (inactive)
same,GI50,HCT-116,> 100 µM (inactive)
same,GI50,A549,> 100 µM (inactive)
same,GI50,SK-MEL-28,> 100 µM (inactive)
same,GI50,U-251,> 100 µM (inactive)
same,GI50,M14,> 100 µM (inactive)
same,GI50,M19-MEL,> 100 µM (inactive)
same,GI50,LOX IMVI,> 100 µM (inactive)
same,GI50,RXF 393,> 100 µM (inactive)
same,GI50,OVCAR-5,> 100 µM (inactive)
same,GI50,OVCAR-4,> 100 µM (inactive)
same,GI50,HOP-18,> 100 µM (inactive)
same,GI50,UO-31,> 100 µM (inactive)
same,GI50,SW-620,> 100 µM (inactive)
same,GI50,HOP-92,> 100 µM (inactive)
same,GI50,K562,> 100 µM (inactive)
same,GI50,UACC-257,> 100 µM (inactive)
same,GI50,ACHN,> 100 µM (inactive)
same,GI50,HT-29,> 100 µM (inactive)
same,GI50,SF-295,> 100 µM (inactive)
O=C(Nc1ccc([N+](=O)[O-])cc1Cl)c1cccc([N+](=O)[O-])c1O,GI50,EKVX,2.16 µM (inactive)
same,GI50,SNB-78,2.3 µM (inactive)
same,GI50,SR,2.9 µM (inactive)
same,GI50,SF-539,2.05 µM (inactive)
same,GI50,CAKI-1,1.83 µM (inactive)
same,GI50,SF-268,2.7 µM (inactive)
same,GI50,HL-60,1.87 µM (inactive)
same,GI50,Malme-3M,0.552 µM (active)
same,GI50,RPMI-8226,0.92 µM (active)
same,GI50,NCI-H226,2.84 µM (inactive)
same,GI50,KM-20L2,2.74 µM (inactive)
same,GI50,OVCAR-8,2.61 µM (inactive)
same,GI50,SK-MEL-2,1.6 µM (inactive)
same,GI50,MOLT-4,1.88 µM (inactive)
same,GI50,CCRF-CEM,1.13 µM (inactive)
same,GI50,KM12,3.11 µM (inactive)
same,GI50,A498,0.668 µM (active)
same,GI50,NCI-H522,0.755 µM (active)
same,GI50,NCI-H23,1.12 µM (inactive)
same,GI50,SN12C,1.48 µM (inactive)
same,GI50,LXFL 529,1.09 µM (active)
same,GI50,NCI-H460,2.21 µM (inactive)
same,GI50,HCC 2998,1.69 µM (inactive)
same,GI50,SNB-19,3.09 µM (inactive)
same,GI50,A549,2.3 µM (inactive)
same,GI50,SK-MEL-28,1.6 µM (inactive)
same,GI50,U-251,2.75 µM (inactive)
same,GI50,LOX IMVI,1.71 µM (inactive)
same,GI50,OVCAR-5,3.02 µM (inactive)
same,GI50,OVCAR-4,2.82 µM (inactive)
same,GI50,HOP-18,0.109 µM (active)
same,GI50,UO-31,1.45 µM (inactive)
same,GI50,SW-620,2.59 µM (inactive)
same,GI50,K562,1.12 µM (inactive)
same,GI50,UACC-257,2.02 µM (inactive)
same,GI50,ACHN,2.52 µM (inactive)
same,GI50,HT-29,3.04 µM (inactive)
same,GI50,SF-295,1.92 µM (inactive)
